Measured values reported in PubChem BioAssay (NCI).
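Where inhibition never reached the appropriate level, the endpoint shown equals the highest concentration tested. Otherwise, values were interpolated linearly from a five-concentration, 48-hour dose response in 96-well plates. GI50 marks 50% less growth. TGI: total growth inhibition.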

Columns and labels:
Experiment in all cases: DTP human tumour cell line panel, 48 h
HOP-62 NSCLC = tested on: HOP-62 NSCLC
MDA-MB-435 = tested on: MDA-MB-435
UO-31 renal = tested on: UO-31 renal
786-0 renal = tested on: 786-0 renal
HCT-116 colon = tested on: HCT-116 colon
SK-MEL-2 melanoma = tested on: SK-MEL-2 melanoma
NCI-H522 lung = tested on: NCI-H522 lung
SK-MEL-28 melanoma = tested on: SK-MEL-28 melanoma
OVCAR-5 ovarian = tested on: OVCAR-5 ovarian
IGROV1 ovarian = tested on: IGROV1 ovarian
SN12C renal = tested on: SN12C renal
NCI/ADR-RES ovarian = tested on: NCI/ADR-RES ovarian
PC-3 prostate = tested on: PC-3 prostate
RPMI-8226 leukemia = tested on: RPMI-8226 leukemia
MOLT-4 leukemia = tested on: MOLT-4 leukemia
NCI-H460 lung = tested on: NCI-H460 lung
LOX IMVI melanoma = tested on: LOX IMVI melanoma
SF-268 CNS = tested on: SF-268 CNS
TK-10 renal = tested on: TK-10 renal
RXF 393 renal = tested on: RXF 393 renal
NCI-H226 lung = tested on: NCI-H226 lung
SK-OV-3 ovarian = tested on: SK-OV-3 ovarian
MCF7 breast = tested on: MCF7 breast
HOP-92 NSCLC = tested on: HOP-92 NSCLC
SR leukemia = tested on: SR leukemia
KM12 colon = tested on: KM12 colon
CAKI-1 renal = tested on: CAKI-1 renal
A498 renal = tested on: A498 renal
M14 melanoma = tested on: M14 melanoma
UACC-62 melanoma = tested on: UACC-62 melanoma
COLO 205 colon = tested on: COLO 205 colon
HCC-2998 colon = tested on: HCC-2998 colon
HS 578T breast = tested on: HS 578T breast
T-47D breast = tested on: T-47D breast
OVCAR-3 ovarian = tested on: OVCAR-3 ovarian
NCI-H23 lung = tested on: NCI-H23 lung
CCRF-CEM leukemia = tested on: CCRF-CEM leukemia
A549 NSCLC = tested on: A549 NSCLC
ACHN renal = tested on: ACHN renal
SK-MEL-5 melanoma = tested on: SK-MEL-5 melanoma
OVCAR-4 ovarian = tested on: OVCAR-4 ovarian
HCT-15 colon = tested on: HCT-15 colon
U251 CNS = tested on: U251 CNS
SNB-19 CNS = tested on: SNB-19 CNS
MALME-3M melanoma = tested on: MALME-3M melanoma
OVCAR-8 ovarian = tested on: OVCAR-8 ovarian
DU-145 prostate = tested on: DU-145 prostate
K-562 leukemia = tested on: K-562 leukemia
SF-295 CNS = tested on: SF-295 CNS

Compound `O=C1C(Cl)=C(Nc2ccccc2O)C(=O)N1Cc1ccccc1` has a GI50 (HOP-62 NSCLC) of 18.5 µM, a TGI (HOP-62 NSCLC) of 32.6 µM and a GI50 (MDA-MB-435) of 19.7 µM. The TGI (MDA-MB-435) was 37.4 µM, the GI50 (UO-31 renal) was 15.9 µM and the TGI (UO-31 renal) was 29.3 µM. It also gave a GI50 (786-0 renal) of 16.8 µM, a TGI (786-0 renal) of 30.4 µM and a GI50 (HCT-116 colon) of 19.6 µM. For the same compound, the TGI (HCT-116 colon) was 33.7 µM, the GI50 (SK-MEL-2 melanoma) was 30.9 µM and the TGI (SK-MEL-2 melanoma) was 96 µM. It also gave a GI50 (NCI-H522 lung) of 29.1 µM, a TGI (NCI-H522 lung) of 97.2 µM and a GI50 (SK-MEL-28 melanoma) of 25.1 µM. For the same compound, the TGI (SK-MEL-28 melanoma) was 55.4 µM, the GI50 (OVCAR-5 ovarian) was 18.5 µM and the TGI (OVCAR-5 ovarian) was 32.7 µM. For the same compound, the GI50 (IGROV1 ovarian) was 29.7 µM, the TGI (IGROV1 ovarian) was greater than 100 µM and the GI50 (SN12C renal) was 16.4 µM. It also gave a TGI (SN12C renal) of 29.9 µM, a GI50 (NCI/ADR-RES ovarian) of 24.6 µM and a TGI (NCI/ADR-RES ovarian) of 57.1 µM. It also gave a GI50 (PC-3 prostate) of 18.1 µM, a TGI (PC-3 prostate) of 39.1 µM and a GI50 (RPMI-8226 leukemia) of 12.5 µM. The TGI (RPMI-8226 leukemia) was 27.2 µM, the GI50 (MOLT-4 leukemia) was 19.6 µM and the TGI (MOLT-4 leukemia) was greater than 100 µM. The GI50 (NCI-H460 lung) was 21 µM, the TGI (NCI-H460 lung) was 42.5 µM and the GI50 (LOX IMVI melanoma) was 16.5 µM. For the same compound, the TGI (LOX IMVI melanoma) was 30.1 µM, the GI50 (SF-268 CNS) was 20.8 µM and the TGI (SF-268 CNS) was 52.2 µM. It also gave a GI50 (TK-10 renal) of 28.7 µM, a TGI (TK-10 renal) of 62.1 µM and a GI50 (RXF 393 renal) of 12.5 µM. The TGI (RXF 393 renal) was 30.7 µM, the GI50 (NCI-H226 lung) was 20.1 µM and the TGI (NCI-H226 lung) was 48.8 µM. The GI50 (SK-OV-3 ovarian) was 28.5 µM, the TGI (SK-OV-3 ovarian) was 71.9 µM and the GI50 (MCF7 breast) was 24.5 µM. The TGI (MCF7 breast) was 64.6 µM, the GI50 (HOP-92 NSCLC) was 21.4 µM and the TGI (HOP-92 NSCLC) was 48.3 µM. The GI50 (SR leukemia) was 51.7 µM, the TGI (SR leukemia) was greater than 100 µM and the GI50 (KM12 colon) was 17.8 µM. The TGI (KM12 colon) was 36.2 µM, the GI50 (CAKI-1 renal) was 26 µM and the TGI (CAKI-1 renal) was 68.7 µM. The GI50 (A498 renal) was 18.4 µM, the TGI (A498 renal) was 40.6 µM and the GI50 (M14 melanoma) was 18.4 µM. It also gave a TGI (M14 melanoma) of 32.3 µM, a GI50 (UACC-62 melanoma) of 19.1 µM and a TGI (UACC-62 melanoma) of 46.4 µM. The GI50 (COLO 205 colon) was 24.2 µM, the TGI (COLO 205 colon) was 46.8 µM and the GI50 (HCC-2998 colon) was 20.9 µM. It also gave a TGI (HCC-2998 colon) of 35.3 µM, a GI50 (HS 578T breast) of 17.3 µM and a TGI (HS 578T breast) of 38.1 µM. The GI50 (T-47D breast) was 23.3 µM, the TGI (T-47D breast) was 52.7 µM and the GI50 (OVCAR-3 ovarian) was 18 µM. For the same compound, the TGI (OVCAR-3 ovarian) was 31.9 µM, the GI50 (NCI-H23 lung) was 17.9 µM and the TGI (NCI-H23 lung) was 31.7 µM. The GI50 (CCRF-CEM leukemia) was 14.5 µM, the TGI (CCRF-CEM leukemia) was 32.7 µM and the GI50 (A549 NSCLC) was 20.3 µM. The TGI (A549 NSCLC) was 46 µM, the GI50 (ACHN renal) was 20.6 µM and the TGI (ACHN renal) was 55.8 µM. It also gave a GI50 (SK-MEL-5 melanoma) of 15.3 µM, a TGI (SK-MEL-5 melanoma) of 28.6 µM and a GI50 (OVCAR-4 ovarian) of 43.1 µM. It also gave a TGI (OVCAR-4 ovarian) greater than 100 µM, a GI50 (HCT-15 colon) of 19.5 µM and a TGI (HCT-15 colon) of 39.9 µM. The GI50 (U251 CNS) was 19.2 µM, the TGI (U251 CNS) was 36.5 µM and the GI50 (SNB-19 CNS) was 35.8 µM. The TGI (SNB-19 CNS) was greater than 100 µM, the GI50 (MALME-3M melanoma) was 22.8 µM and the TGI (MALME-3M melanoma) was 40.4 µM. The GI50 (OVCAR-8 ovarian) was 18.3 µM, the TGI (OVCAR-8 ovarian) was 34 µM and the GI50 (DU-145 prostate) was 18.2 µM. For the same compound, the TGI (DU-145 prostate) was 32.1 µM, the GI50 (K-562 leukemia) was 15.5 µM and the TGI (K-562 leukemia) was 33.6 µM. It also gave a GI50 (SF-295 CNS) of 26.2 µM and a TGI (SF-295 CNS) of 52.9 µM.
